Active and inactive are the calls of the source.
Experiments:
[1] = tested on: Vero; assay: viability of Vero cells under compound – cytotoxicity control for flavivirus capping enzyme inhibitors (AID 588742); assay type: functional; conditions: Chlorocebus sabaeus
[2] = biological target: Genome polyprotein (dengue virus type 2, UniProt P29990); assay: flavivirus cap methylation enzyme inhibition – biochemical, confirmation dose response, primary screen (AID 588689); assay type: functional
[3] = biological target: Photoreceptor-specific nuclear receptor (Homo sapiens, UniProt Q9Y5X4); assay type: functional, cell-based;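 further: CHO-S cells with Gal4-NCOR and VP16-NR2E3 two-hybrid luciferase reporter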
[4] = tested on: HeLa; assay: ATP-based viability loss in HeLa cells – cell-based, CellTiter-Glo luminescence, cherry-pick samples, cytotoxicity control for MITF activator project, dose response (AID 540259); assay type: functional; conditions: Homo sapiens
[5] = biological target: Serine/threonine-protein kinase pim-1 (Homo sapiens, UniProt P11309); assay type: functional
[6] = biological target: Cell division cycle 7-related protein kinase (Homo sapiens, UniProt O00311); assay type: functional;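 further: value obtained from a kinome-wide kinase panel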
[7] = biological target: Homeodomain-interacting protein kinase 2 (Homo sapiens, UniProt Q9H2X6); assay type: functional;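 further: measured within a kinome-wide kinase profiling panel, HIPK2 being one panel member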
[8] = biological target: MAP kinase-interacting serine/threonine-protein kinase 2 (Homo sapiens, UniProt Q9HBH9); assay type: functional
[9] = biological target: T1, Interleukin-1 receptor-associated kinase 4 (Homo sapiens, UniProt Q9NWZ3); assay type: functional
T1 sequence (Q9NWZ3 whole entry): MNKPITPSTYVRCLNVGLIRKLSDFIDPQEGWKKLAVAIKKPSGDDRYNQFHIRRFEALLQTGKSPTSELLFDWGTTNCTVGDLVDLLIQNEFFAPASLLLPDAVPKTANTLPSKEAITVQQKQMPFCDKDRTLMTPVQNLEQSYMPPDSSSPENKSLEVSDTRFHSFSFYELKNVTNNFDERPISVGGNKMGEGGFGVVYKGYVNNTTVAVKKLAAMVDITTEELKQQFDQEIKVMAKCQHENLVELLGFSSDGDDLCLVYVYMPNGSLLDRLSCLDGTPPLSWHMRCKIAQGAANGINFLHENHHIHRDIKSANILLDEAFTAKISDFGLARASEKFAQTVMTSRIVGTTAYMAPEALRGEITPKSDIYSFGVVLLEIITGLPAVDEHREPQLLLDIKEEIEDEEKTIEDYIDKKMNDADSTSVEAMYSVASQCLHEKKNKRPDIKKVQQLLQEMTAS

[10] = biological target: Glycogen synthase kinase-3 beta (Homo sapiens, UniProt P49841); assay type: functional;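 further: value comes from a broad kinome profiling panel, with GSK3B as the panel member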
[11] = biological target: cAMP-dependent protein kinase catalytic subunit alpha (Homo sapiens, UniProt P17612); assay type: functional
[12] = biological target: Mitogen-activated protein kinase kinase kinase kinase 4 (Homo sapiens, UniProt O95819); assay type: functional
[13] = biological target: DNA dC->dU-editing enzyme APOBEC-3G (Homo sapiens, UniProt Q9HC16); assay: inhibition of APOBEC3G ssDNA deamination – biochemical, fluorescence, single-stranded DNA substrate, SAR follow-up (AID 602136); assay type: functional; conditions: read-out: IC50_Mean
[14] = biological target: DNA dC->dU-editing enzyme APOBEC-3A (Homo sapiens, UniProt P31941); assay: SAR analysis of small molecule inhibitors of APOBEC3A DNA Deaminase via a fluorescence-based single-stranded DNA deaminase assay.; assay type: functional; conditions: read-out: IC50_Mean
[15] = biological target: Delta-type opioid receptor (Homo sapiens, UniProt P41143); assay: Counterscreen for agonists of heterodimerization of the mu 1 (OPRM1) and delta 1 (OPRD1) opioid receptors: Luminescence-based cell-based high throughput dose response assay to identify agonists of OPRD1 homodimerization. [Related pubchem assays (depositor defined):AID504326, AID504355, AID504692, AID504904, AID504905]; assay type: functional
[16] = biological target: Mu-type opioid receptor (Homo sapiens, UniProt P35372); assay: Counterscreen for agonists of heterodimerization of the mu 1 (OPRM1) and delta 1 (OPRD1) opioid receptors: Luminescence-based cell-based high throughput dose response assay to identify agonists of OPRM1 homodimerization.; assay type: functional;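 further: U2OS cells expressing OPRM1 and beta-arrestin as split beta-galactosidase partners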
[17] = biological target: 5-hydroxytryptamine receptor 5A (Homo sapiens, UniProt P47898); assay: Counterscreen for agonists of OPRM1-OPRD1 heterodimerization: luminescence-based cell-based high throughput dose response assay to identify agonists of 5-hydroxytryptamine (serotonin) 5A receptor (HTR5A). [Related pubchem assays (depositor defined):AID504326, AID504355, AID504692, AID504904, AID504905]; assay type: functional
[18] = biological target: T2, Protein skinhead-1 (Caenorhabditis elegans, UniProt P34707); assay type: functional
T2 sequence (P34707 whole entry): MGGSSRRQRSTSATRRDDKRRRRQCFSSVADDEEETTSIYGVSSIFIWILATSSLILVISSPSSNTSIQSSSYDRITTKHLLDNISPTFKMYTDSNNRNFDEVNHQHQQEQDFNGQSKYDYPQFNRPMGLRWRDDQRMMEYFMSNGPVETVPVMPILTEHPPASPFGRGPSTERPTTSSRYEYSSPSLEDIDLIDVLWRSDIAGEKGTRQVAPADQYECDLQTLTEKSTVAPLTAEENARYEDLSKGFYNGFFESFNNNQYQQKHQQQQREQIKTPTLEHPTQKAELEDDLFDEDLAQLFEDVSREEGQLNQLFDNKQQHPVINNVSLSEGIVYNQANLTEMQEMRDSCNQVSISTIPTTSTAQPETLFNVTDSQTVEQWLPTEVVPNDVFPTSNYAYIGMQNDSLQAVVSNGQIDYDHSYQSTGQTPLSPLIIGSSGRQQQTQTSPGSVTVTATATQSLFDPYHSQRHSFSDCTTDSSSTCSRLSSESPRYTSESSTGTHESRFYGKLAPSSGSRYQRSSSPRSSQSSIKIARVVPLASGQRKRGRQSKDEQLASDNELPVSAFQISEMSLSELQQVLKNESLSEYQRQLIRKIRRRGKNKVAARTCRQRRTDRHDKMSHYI

[19] = biological target: T3, Aryl hydrocarbon receptor (Homo sapiens, UniProt P35869); conditions: Potency;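 further: confirmatory quantitative high-throughput screen measuring activation of the AhR signaling pathway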
T3 sequence (P35869 whole entry): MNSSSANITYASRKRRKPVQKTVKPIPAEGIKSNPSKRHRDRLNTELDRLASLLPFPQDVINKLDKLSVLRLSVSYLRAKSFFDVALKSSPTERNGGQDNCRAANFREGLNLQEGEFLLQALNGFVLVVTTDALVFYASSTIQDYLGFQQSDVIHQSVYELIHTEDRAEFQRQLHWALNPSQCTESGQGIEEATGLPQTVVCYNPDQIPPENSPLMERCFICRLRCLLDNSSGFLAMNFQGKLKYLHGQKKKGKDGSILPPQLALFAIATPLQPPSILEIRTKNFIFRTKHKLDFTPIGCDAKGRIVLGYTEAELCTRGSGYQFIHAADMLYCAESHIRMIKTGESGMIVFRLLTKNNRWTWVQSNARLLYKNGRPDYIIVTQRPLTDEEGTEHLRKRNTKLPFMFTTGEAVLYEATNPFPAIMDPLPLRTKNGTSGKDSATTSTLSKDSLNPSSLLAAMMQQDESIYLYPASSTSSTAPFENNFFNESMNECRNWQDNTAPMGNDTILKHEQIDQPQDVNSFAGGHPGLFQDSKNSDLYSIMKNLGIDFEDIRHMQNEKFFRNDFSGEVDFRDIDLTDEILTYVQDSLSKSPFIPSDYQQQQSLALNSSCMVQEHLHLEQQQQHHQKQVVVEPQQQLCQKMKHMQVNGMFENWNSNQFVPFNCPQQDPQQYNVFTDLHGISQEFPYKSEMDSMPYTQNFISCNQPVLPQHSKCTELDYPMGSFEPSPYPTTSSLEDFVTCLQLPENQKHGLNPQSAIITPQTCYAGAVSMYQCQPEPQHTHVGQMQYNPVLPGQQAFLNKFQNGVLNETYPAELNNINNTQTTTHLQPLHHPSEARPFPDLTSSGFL

[20] = biological target: Dual specificity protein kinase CLK4 (Homo sapiens, UniProt Q9HAZ1); assay type: functional
[21] = biological target: T4, Short transient receptor potential channel 4 (Mus musculus, UniProt Q9QUQ5); assay: calcium entry via TRPC4 opening agents – cell-based, HEK293 TRPC4/mu-opioid, Fluo-4 calcium, dose response (AID 434937); assay type: functional
T4 sequence (Q9QUQ5 whole entry): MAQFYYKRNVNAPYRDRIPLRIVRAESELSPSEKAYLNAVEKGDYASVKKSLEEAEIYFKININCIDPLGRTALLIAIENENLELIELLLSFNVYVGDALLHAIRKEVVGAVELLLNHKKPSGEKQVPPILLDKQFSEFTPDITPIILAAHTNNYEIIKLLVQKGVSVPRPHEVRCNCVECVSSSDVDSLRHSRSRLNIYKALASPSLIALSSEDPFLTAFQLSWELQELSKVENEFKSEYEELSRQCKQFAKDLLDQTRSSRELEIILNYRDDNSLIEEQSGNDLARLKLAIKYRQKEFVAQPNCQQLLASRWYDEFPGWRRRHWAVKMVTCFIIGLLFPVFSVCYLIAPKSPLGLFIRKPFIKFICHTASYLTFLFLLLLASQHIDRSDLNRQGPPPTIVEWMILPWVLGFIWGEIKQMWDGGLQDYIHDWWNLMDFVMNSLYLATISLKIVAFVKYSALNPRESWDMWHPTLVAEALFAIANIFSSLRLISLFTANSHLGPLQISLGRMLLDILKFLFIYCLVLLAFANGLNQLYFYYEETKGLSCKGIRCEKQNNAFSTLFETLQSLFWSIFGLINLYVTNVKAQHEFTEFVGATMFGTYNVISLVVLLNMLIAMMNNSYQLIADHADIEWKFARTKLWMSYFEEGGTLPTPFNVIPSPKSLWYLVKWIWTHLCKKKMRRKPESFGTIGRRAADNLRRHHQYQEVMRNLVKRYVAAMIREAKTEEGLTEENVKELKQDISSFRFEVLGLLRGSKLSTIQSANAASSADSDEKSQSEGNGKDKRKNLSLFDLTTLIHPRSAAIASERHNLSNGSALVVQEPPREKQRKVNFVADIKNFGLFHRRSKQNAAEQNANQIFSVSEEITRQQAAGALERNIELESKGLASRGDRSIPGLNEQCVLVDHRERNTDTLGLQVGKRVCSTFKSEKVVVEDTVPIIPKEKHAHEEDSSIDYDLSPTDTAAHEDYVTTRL

[22] = tested on: Escherichia coli; assay: microbe, parasite or virus in culture
[23] = tested on: Escherichia coli; assay: microbe, parasite or virus in culture; remark: listed apart in the source
[24] = tested on: H4; assay: Luminescence Cell-Based Dose Response HTS to Identify Activators of 5'UTR Stem-Loop Driven Prion Protein mRNA Translation in H4 Neuroglioblastoma Cells. [Related pubchem assays: 1829 (Project Summary), 1814 (Primary HTS)]; assay type: functional; conditions: Homo sapiens
[25] = biological target: Mitochondrial peptide methionine sulfoxide reductase (Bos taurus, UniProt P54149); assay type: functional;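 further: absorbance read-out, biochemical high-throughput dose-response screen for MsrA inhibitors, confirmatory; recombinant bovine MsrA coupled to E. coli TrxB with NADPH and selenocystamine; potency is for inhibitors of MsrA activity on DMSO substrate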
[26] = tested on: Streptococcus sp. 'group A'; assay: Streptococcus pyogenes SK(-)GAS viability under kanamycin – luminescence, BacTiterGlo, confirmation, counter-screen for streptokinase expression inhibitor project, dose response (AID 1900); assay type: functional, organism-based
[27] = tested on: Streptococcus; assay: GAS UMAA2166 growth inhibition – luminescence, BacTiterGlo, counter-screen for streptokinase expression inhibitor project, dose response (AID 1915); assay type: functional, organism-based;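 further: potency for reduction of bacterial viability or growth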

Chain of Mu-type opioid receptor (P35372 whole entry): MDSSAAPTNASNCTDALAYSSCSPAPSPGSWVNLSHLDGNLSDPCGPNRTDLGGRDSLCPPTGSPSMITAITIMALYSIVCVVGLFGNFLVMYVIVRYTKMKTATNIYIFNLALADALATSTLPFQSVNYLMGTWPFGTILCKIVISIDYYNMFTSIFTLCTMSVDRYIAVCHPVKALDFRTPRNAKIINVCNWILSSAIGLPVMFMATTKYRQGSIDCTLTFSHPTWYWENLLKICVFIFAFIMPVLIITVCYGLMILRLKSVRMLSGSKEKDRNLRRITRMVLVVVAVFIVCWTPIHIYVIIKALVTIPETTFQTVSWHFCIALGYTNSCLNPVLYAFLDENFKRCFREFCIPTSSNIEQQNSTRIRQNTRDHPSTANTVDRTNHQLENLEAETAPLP
Chain of Homeodomain-interacting protein kinase 2 (Q9H2X6 whole entry): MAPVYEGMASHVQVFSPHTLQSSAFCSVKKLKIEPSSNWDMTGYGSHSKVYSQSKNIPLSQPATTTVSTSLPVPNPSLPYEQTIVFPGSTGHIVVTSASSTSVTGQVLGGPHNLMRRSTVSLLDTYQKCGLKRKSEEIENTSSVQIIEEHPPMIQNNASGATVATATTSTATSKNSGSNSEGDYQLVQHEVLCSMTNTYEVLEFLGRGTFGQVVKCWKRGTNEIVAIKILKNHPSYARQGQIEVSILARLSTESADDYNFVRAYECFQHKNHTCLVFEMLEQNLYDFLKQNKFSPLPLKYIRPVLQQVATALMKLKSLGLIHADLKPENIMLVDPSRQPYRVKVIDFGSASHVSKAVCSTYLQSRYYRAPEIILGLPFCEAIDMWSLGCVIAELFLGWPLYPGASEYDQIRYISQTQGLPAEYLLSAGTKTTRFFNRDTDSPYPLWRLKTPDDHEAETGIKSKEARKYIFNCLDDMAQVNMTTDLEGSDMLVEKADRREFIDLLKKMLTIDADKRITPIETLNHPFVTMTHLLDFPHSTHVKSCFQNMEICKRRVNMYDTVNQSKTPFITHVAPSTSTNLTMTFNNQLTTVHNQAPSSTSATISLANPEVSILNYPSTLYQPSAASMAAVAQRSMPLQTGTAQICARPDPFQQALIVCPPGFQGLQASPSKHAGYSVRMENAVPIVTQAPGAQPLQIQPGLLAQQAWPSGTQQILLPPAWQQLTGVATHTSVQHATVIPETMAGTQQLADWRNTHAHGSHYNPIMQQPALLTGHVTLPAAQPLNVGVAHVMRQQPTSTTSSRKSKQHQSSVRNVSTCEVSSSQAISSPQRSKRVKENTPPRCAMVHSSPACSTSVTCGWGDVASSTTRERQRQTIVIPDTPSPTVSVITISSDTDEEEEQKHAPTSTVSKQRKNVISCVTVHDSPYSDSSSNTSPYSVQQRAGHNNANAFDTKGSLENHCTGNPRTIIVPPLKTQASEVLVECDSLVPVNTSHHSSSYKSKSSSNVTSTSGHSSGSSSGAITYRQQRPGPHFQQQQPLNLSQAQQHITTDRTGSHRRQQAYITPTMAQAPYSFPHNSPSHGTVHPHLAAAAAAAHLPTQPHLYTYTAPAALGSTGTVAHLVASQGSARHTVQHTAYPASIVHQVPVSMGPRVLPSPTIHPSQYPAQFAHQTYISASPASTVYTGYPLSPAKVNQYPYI
Chain of 5-hydroxytryptamine receptor 5A (P47898 whole entry): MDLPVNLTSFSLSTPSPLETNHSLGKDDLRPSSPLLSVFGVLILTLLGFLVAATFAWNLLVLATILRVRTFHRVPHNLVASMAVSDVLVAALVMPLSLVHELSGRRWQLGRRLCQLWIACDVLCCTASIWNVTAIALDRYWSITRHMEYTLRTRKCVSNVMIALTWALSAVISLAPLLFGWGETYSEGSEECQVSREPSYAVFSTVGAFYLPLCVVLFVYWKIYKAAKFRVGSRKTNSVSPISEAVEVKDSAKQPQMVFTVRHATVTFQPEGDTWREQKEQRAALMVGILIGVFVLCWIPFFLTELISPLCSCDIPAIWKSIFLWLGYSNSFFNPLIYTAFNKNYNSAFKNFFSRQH
Chain of Mitogen-activated protein kinase kinase kinase kinase 4 (O95819 whole entry): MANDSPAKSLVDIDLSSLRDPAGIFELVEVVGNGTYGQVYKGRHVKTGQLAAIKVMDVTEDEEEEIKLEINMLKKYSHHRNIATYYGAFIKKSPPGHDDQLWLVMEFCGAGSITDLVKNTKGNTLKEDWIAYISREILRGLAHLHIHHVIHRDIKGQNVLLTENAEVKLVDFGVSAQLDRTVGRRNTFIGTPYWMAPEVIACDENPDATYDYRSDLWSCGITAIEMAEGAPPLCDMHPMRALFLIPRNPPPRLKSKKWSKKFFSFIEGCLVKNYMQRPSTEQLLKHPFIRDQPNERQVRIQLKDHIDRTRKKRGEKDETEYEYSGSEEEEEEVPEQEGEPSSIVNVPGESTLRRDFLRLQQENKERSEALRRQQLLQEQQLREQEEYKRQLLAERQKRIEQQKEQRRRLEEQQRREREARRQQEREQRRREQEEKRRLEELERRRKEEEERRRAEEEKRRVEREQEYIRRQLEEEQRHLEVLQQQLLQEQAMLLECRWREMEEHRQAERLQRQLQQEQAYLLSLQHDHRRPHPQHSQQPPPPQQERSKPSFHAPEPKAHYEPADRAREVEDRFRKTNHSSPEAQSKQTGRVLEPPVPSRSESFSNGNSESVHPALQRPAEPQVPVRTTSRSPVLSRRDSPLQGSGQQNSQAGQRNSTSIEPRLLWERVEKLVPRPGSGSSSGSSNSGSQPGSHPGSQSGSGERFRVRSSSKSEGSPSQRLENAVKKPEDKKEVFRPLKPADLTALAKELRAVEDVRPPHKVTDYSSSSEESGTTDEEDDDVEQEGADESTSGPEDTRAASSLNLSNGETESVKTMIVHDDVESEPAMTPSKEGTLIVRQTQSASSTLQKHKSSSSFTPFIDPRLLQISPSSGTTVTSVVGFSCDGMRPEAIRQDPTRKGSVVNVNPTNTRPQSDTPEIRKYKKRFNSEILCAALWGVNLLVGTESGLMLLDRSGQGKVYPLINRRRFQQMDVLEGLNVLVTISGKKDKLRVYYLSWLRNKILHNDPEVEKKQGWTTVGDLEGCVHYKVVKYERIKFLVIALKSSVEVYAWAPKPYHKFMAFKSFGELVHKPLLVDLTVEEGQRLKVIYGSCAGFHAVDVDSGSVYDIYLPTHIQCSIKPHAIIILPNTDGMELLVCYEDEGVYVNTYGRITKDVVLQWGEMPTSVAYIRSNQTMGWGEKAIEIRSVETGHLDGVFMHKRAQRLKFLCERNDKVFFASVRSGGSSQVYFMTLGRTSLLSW
Chain of Serine/threonine-protein kinase pim-1 (P11309 whole entry): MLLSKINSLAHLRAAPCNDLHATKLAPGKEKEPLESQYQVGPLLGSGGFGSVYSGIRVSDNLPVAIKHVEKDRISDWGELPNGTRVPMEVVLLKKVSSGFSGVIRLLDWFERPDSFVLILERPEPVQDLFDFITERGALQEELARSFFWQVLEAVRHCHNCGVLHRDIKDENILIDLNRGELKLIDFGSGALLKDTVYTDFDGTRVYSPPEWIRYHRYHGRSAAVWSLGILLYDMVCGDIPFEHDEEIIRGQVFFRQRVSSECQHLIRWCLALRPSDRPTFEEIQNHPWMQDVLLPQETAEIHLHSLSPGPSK
Chain of MAP kinase-interacting serine/threonine-protein kinase 2 (Q9HBH9 whole entry): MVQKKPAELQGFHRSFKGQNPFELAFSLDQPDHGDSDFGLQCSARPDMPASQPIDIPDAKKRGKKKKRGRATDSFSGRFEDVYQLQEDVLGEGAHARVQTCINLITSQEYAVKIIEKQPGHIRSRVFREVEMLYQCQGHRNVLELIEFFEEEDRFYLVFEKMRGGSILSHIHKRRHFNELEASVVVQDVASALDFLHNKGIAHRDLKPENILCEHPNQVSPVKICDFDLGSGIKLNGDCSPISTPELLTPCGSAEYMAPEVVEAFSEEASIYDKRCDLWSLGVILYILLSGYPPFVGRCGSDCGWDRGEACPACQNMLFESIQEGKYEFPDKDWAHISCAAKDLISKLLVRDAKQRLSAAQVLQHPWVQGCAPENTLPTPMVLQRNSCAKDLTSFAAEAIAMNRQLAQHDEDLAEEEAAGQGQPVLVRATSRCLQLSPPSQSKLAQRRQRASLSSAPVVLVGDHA
Chain of Delta-type opioid receptor (P41143 whole entry): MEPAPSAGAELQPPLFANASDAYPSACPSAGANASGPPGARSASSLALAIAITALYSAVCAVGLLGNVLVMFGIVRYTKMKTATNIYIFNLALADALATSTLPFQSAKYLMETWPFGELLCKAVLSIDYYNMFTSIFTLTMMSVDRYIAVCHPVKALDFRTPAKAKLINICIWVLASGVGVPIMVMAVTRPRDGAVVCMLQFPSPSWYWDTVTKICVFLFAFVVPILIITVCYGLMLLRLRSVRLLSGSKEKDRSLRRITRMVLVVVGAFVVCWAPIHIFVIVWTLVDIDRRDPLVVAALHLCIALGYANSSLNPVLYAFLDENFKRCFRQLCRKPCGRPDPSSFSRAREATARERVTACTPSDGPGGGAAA
Chain of Glycogen synthase kinase-3 beta (P49841 whole entry): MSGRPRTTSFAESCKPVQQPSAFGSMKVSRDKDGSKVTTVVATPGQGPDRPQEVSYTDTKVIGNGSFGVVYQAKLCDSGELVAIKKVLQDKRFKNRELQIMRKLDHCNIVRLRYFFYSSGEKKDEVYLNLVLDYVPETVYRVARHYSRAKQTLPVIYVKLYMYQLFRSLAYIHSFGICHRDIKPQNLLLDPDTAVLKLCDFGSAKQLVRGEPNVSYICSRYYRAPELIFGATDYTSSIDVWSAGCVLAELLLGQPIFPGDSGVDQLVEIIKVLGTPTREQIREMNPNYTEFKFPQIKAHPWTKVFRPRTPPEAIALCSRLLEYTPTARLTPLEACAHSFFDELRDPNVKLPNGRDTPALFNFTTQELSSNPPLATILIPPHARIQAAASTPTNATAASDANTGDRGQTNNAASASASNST
Chain of DNA dC->dU-editing enzyme APOBEC-3A (P31941 whole entry): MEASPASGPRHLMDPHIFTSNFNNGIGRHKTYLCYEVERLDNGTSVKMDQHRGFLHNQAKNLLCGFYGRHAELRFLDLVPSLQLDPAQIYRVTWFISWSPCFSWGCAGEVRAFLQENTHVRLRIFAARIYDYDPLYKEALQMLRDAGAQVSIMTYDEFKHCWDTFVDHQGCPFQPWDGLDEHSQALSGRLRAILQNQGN

Structure (SMILES): Cc1ccc([C@@H]2CC=C(C(=O)O)[C@H](c3ccc(C(C)(C)C)cc3)N2S(=O)(=O)c2ccc(C)cc2)cc1
- CC50 [1]: > 40 µM (active)
- IC50 [2]: 39.8 µM (active)
- IC50 [3]: 5.74 µM (active)

Structure (SMILES): CC(NS(=O)(=O)c1cccc(Cl)c1)C(=O)Nc1ccc(-c2nc3ccccc3s2)cc1 (stereo not given)
- AC50 [4]: > 350 µM (inactive)

Structure (SMILES): Cc1ccc(NC(=O)c2ccccc2Cl)c(Cl)c1
- AC50 [4]: 84.8 µM (active)

Structure (SMILES): FC(F)(F)c1ccccc1CNc1nccc(-c2c[nH]c3ncccc23)n1
- Ki [5]: 0.501 µM (active)
- Ki [6]: 0.00126 µM (active)
- Ki [7]: 0.02 µM (active)
- Ki [8]: 0.01 µM (active)
- Ki [9]: 0.2 µM (active)
- Ki [10]: 0.0126 µM (active)
- Ki [11]: 0.0631 µM (active)
- Ki [12]: 0.02 µM (active)

Structure (SMILES): COCc1nnc(NC(=O)Cc2ccc(Cl)cc2)s1
- IC50 [13]: > 99 µM (inactive)
- IC50 [14]: > 99 µM (inactive)

Structure (SMILES): OC(CN1CCN(C(c2ccccc2)c2ccccc2)CC1)c1ccccc1 (stereo not given)
- EC50 [15]: > 92.6 µM (inactive)
- EC50 [16]: > 92.6 µM (inactive)
- EC50 [17]: > 92.6 µM (inactive)
- IC50 [18]: > 100 µM (inactive)

Structure (SMILES): CCOP(=S)(OCC)Oc1nc(Cl)n(C(C)C)n1
- AC50 [19]: 39.8 µM (inconclusive)

Structure (SMILES): Cc1ccccc1-c1c(-c2ccc3[nH]nc(C)c3c2)nnn1Cc1ccccc1
- Ki [5]: 0.251 µM (active)
- Ki [6]: 0.00251 µM (active)
- Ki [7]: 2.51 µM (active)
- Ki [8]: 0.158 µM (active)
- Ki [9]: > 10 µM (inactive)
- Ki [10]: 0.0126 µM (active)
- Ki [20]: 0.00794 µM (active)
- Ki [12]: 0.158 µM (active)

Structure (SMILES): CCOC(=O)C1(CCOC)CCN(Cc2ccccc2-c2ccco2)CC1
- EC50 [21]: 0.299 µM (active)
- EC50 [15]: > 92.5 µM (inactive)
- EC50 [16]: > 92.5 µM (inactive)
- EC50 [17]: > 92.5 µM (inactive)

Structure (SMILES): CC(C)(C)c1ccc(S(=O)(=O)N2CCSC2)cc1
- AC50 [22]: 37.1 µM (active)
- AC50 [23]: 31.3 µM (active)

Structure (SMILES): Cc1ccc(Nc2c([N+](=O)[O-])nn(-c3ccccc3)[n+]2[O-])c(C)c1
- EC50 [24]: 9.37 µM (active)
- IC50 [25]: 155 µM (inactive)

Structure (SMILES): CN1CCN(c2c(F)cc3c(=O)c(C(=O)O)cn4c3c2OCN4C)CC1 [MARBOFLOXACIN]
- EC50 [26]: 2.79 µM (active)
- EC50 [27]: 3.07 µM (active)
- AC50 [22]: 1.12 µM (active)
- AC50 [23]: 4.63 µM (active)

— ChEMBL document CHEMBL1201862, “PubChem BioAssay data set” (2004)
